Results from patent US6593087B2, “Methods for detecting and reversing resistance to macrocyclic lactone compounds” (priority 1997, dated 2003).

Key:
[1] = test system: mice with deletion of mdr1a; settings: mice with deletion of mdr1a versus normal mice; cited from earlier work
[2] = test system: H. contortus moxidectin-resistant strain (MOF14); experiment: Dose titration to establish LD50 against moxidectin resistant H. contortus in the jird; type: in vivo, Haemonchus contortus; settings: jirds, oral, treated day 10 after inoculation, probit analysis
Description: (§1) Jirds, which are fed on a standard commercial ration to which 0.02% hydrocortisone has been added 5 days prior to infection, are inoculated with 1000 exsheathed L3 H. contortus. On day 10 after inoculation, the jirds are treated with either water or various doses of moxidectin or ivermectin orally. Each treatment group contains 6 jirds. Probit analyses are used to estimate LD50 levels for each anthelmintic against each strain.

[3] = test system: H. contortus ivermectin resistant strain (ACR); settings: ACR after twelve generations of ivermectin selection
[4] = test system: H. contortus moxidectin-resistant strain (MOF14); experiment: Effect of verapamil on efficacy of moxidectin and ivermectin against moxidectin-resistant H. contortus in jirds (Example 8); type: in vivo, Haemonchus contortus; parameters: key to SIGNIFICANCE AT P <0.05: A: Different letters indicate the mean worm counts are statistically different; B: Different letters indicate the mean worm counts are statistically different; C: Different letters indicate the mean worm counts are statistically different; settings: for SIGNIFICANCE AT P <0.05: MOF14 in jirds, mean worm counts, IVM (±VRP) not compared with MOX (±VRP)
[5] = test system: H. contortus susceptible strain (PF14); experiment: Dose titration to establish LD50 against susceptible H. contortus in the jird; type: in vivo, Haemonchus contortus; settings: jirds, oral, treated day 10 after inoculation, probit analysis
Description: as §1

[6] = test system: H. contortus ivermectin resistant strain (MFR); settings: MFR selected over seventeen generations of ivermectin selection; cited from earlier work
[7] = test system: H. contortus susceptible strain (PF14); experiment: Efficacy of verapamil with or without ivermectin against susceptible H. contortus in jirds (Example 7); type: in vivo, Haemonchus contortus
Description: as §1
(§2) Verapamil is given concomitantly with ivermectin by the oral route.

[8] = test system: H. contortus moxidectin-resistant strain (MOF14); experiment: Efficacy of verapamil with or without ivermectin against moxidectin resistant H. contortus in jirds (Example 7); type: in vivo, Haemonchus contortus
Description: as §1, §2

[9] = verapamil 20 mg/kg, resistant worms, jirds (Example 8)

22,23-dihydroavermectin B1 [ivermectin]
sensitivity to ivermectin relative to normal mice [1]: 50-100 times | estimated LD50 [2]: 0.046 mg/kg | resistance at the ED95 compared with ACS [3]: 6.3 × | SIGNIFICANCE AT P <0.05 [4]: B | estimated LD50 [5]: 0.024 mg/kg | resistance at the ED95 compared with MFS [6]: 10 ×

CO/N=C1\C[C@]2(C[C@@H]3C[C@@H](C/C=C(\C)C[C@@H](C)/C=C/C=C4\CO[C@@H]5[C@H](O)C(C)=C[C@@H](C(=O)O3)[C@]45O)O2)O[C@H](/C(C)=C/C(C)C)[C@H]1C [moxidectin, 23-(O-methyloxime)-LL-F28249α]
estimated LD50 [2]: 0.017 mg/kg | SIGNIFICANCE AT P <0.05 [4]: B | estimated LD50 [5]: 0.010 mg/kg

COc1ccc(CCN(C)CCCC(C#N)(c2ccc(OC)c(OC)c2)C(C)C)cc1OC (centres unmarked) [verapamil]
significance of worm counts ([7]; susceptible strain PF14 in jirds, VRP 20 mg/kg, IVM 0.024 mg/kg, oral): n.s. | effect of verapamil alone on worm counts ([7]; susceptible strain, any of the dose rates used (20 to 80 mg/kg), jirds): no significant effect on worm counts | SIGNIFICANCE AT P <0.05 [4]: A | effect of verapamil on the efficacy of moxidectin [4, 9]: significantly increases the efficacy of moxidectin | increase in efficacy when verapamil is coadministered with ivermectin [4, 9]: not significant | significance of worm counts ([8]; MOX-resistant strain MOF14 in jirds, VRP 20 mg/kg, IVM 0.046 mg/kg, oral): n.s. | effect of verapamil alone on worm counts ([8]; moxidectin resistant strain, any of the dose rates used (20 to 80 mg/kg), jirds): no significant effect on worm counts | effect of verapamil on the efficacy of ivermectin ([8]; verapamil 20 mg/kg, moxidectin resistant worms, jirds (Example 7)): significantly enhances the efficacy of ivermectin
